Experiment: mn = molality of the nth substance listed, in mol/kg
Conditions: 101 kPa, Liquid, Pycnometric method

Cl.N[C@@H](CCC(=O)O)C(=O)O [L-glutamic acid hydrochloride] + O
mass density [kg/m3]
Conditions | m1 = 0.01009 | m1 = 0.02021 | m1 = 0.02997 | m1 = 0.03992 | m1 = 0.05011 | m1 = 0.06005
298.15 K | 1000 | 1000.9 | 1001.6 | 1002.3 | 1002.9 | 1003.6
303.15 K | 998.9 | 999.9 | 1000.6 | 1001.2 | 1001.8 | 1002.4
308.15 K | 997.6 | 998.7 | 999.4 | 1000 | 1000.6 | 1001.1
313.15 K | 996.1 | 997.3 | 998 | 998.6 | 999.2 | 999.8
